The subject of one experiment is Fusarium graminearum. It counts as cell-based. As to conditions: mycelial growth inhibition, PDA, 25° C.
Experiment [1] deals with Fusarium pseudogramineaqum. It counts as cell-based.
Another experiment deals with wheat scab. It counts as in vivo. As to conditions: in words; field experiments of both sites (Tables 3 and 4).

With `O=C(NC1CCC1c1ccc(Cl)cc1Cl)c1cccnc1C(F)(F)F` (stereo not drawn) [Cyclobutrifluram(C), Cyclobutrifluram], the EC50 ppm amounted to 0.3744 ppm in the experiment on Fusarium graminearum and 0.1276 ppm in experiment [1]. Further, the “control effect on wheat scab” value in the experiment with wheat scab was “significant control effect”.
For `CCCN(CCOc1c(Cl)cc(Cl)cc1Cl)C(=O)n1ccnc1` [Prochloraz(P), Prochloraz], in that order: 0.2663 ppm, 0.2311 ppm and “significant control effect”.

The record behind these values is patent US20240381870A1 (priority 2024, published 2024).
